Measurements from publication PMC6944674, “Comparison of the Hepatotoxic Potential of Two Treatments for Autosomal-Dominant Polycystic Kidney DiseaseUsing Quantitative Systems Toxicology Modeling” (Pharmaceutical Research, 2020).
Read-outs that look alike come from different tables or passages of the source.

Experiments:
human BSEP = target: T1, human BSEP (Homo sapiens, UniProt O95342); assay: BSEP vesicular transport inhibition assay (taurocholate, HEK-293 cell membrane vesicles); format: biochemical
T1 construct: host or cells: HEK-293 cell membrane vesicles
T1 sequence (O95342 whole entry): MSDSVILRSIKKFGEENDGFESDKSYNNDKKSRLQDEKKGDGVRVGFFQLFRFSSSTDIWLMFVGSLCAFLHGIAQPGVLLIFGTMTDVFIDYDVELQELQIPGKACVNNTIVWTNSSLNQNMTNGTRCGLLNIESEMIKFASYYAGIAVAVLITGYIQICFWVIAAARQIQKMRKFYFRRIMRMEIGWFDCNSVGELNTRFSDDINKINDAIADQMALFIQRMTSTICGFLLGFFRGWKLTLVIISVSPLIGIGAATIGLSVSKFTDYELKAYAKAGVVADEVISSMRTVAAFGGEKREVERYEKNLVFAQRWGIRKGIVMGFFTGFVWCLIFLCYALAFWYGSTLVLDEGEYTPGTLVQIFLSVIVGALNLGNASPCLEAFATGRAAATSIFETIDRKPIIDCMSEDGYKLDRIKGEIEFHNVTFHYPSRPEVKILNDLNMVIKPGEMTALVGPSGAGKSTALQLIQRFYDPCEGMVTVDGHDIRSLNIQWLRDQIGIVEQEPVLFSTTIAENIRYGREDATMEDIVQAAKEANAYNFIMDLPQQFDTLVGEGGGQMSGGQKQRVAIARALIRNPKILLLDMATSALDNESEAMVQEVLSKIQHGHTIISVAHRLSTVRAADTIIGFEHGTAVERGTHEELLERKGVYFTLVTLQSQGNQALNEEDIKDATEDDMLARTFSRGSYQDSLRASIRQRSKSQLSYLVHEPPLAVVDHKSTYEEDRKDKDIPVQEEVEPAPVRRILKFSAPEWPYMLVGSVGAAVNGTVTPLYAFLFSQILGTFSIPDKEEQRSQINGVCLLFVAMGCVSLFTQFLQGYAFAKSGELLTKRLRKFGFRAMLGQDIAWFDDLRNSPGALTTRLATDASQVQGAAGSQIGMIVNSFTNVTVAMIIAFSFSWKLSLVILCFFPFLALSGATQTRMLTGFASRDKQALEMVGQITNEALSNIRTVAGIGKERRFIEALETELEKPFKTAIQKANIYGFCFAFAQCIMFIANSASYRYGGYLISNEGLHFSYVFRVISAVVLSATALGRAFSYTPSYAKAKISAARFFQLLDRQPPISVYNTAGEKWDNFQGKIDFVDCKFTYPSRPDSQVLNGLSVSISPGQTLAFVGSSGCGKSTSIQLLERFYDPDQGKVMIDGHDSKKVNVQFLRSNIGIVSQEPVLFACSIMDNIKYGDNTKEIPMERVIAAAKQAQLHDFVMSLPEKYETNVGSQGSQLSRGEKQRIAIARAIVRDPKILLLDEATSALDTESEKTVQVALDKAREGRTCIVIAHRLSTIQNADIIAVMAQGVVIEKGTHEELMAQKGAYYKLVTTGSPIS
Description: The functional impact of lixivaptan, its three metabolites and tolvaptan on the human ABC (efflux) transporters BSEP and MRP3 and MRP4 was assessed for this project using in vitro vesicular transport inhibition assays. The inhibition of the human SLC (uptake) transporter NTCP was assessed using CHO cells stably expressing human NTCP. The concentration ranges used for the five test articles was determined based on the solubility of each compound in the assay solution. All transporter inhibition assays were conducted in triplicate by Solvo Biotechnology (Szeged, Hungary).
For the simulation of bile acid transporter inhibition by lixivaptan in DILIsym, parameter values were selected for BSEP canalicular transport, basolateral transport (encompassing both MRP3 and MRP4), and NTCP transport. The parameter values for each include the inhibition constant, defined as the IC50 or Ki value, and the inhibition type, defined as competitive, non-competitive, or mixed inhibition.
In vesicular transport inhibition assays, lixivaptan and its metabolites each inhibited BSEP-mediated probe substrate accumulation (Figure B1) and MRP4-mediated probe substrate accumulation (Figure B2) dose-dependently.
Figure B1. […] See Appendix A for more details.

HepG2 cells [1] = assay: Seahorse XFe96 cellular respiration assay (oxygen consumption rate); format: cell-based; conditions: 24 hour incubation
Description: To assess the potential effect of the five test articles on mitochondrial function, cellular respiration assays using a Seahorse XFe96 Flux Analyzer were conducted by Cyprotex (Macclesfield, UK) and overseen by the authors. HepG2 cells were incubated with each test article for 1 or 24 hours and tested for an effect on cellular respiration by measuring the oxygen consumption rate (OCR). Each study was conducted in triplicate. Importantly, the 1 hour culture was conducted in the absence of serum (i.e. no serum protein binding) as is standard for the Seahorse Analyzer assay conditions.

RNS/ROS formation = assay: RNS/ROS production parameter from DILIsym simulation of ROS data; conditions: calculated from 24 h HepG2 ROS data; higher = higher risk
Description: To define the DILIsym parameter values for lixivaptan- and WAY-138451-mediated oxidative stress, the 24 h in vitro data were simulated within DILIsym (Fig. 5). The intracellular concentration of each compound was measured by LC/MS/MS analysis. For lixivaptan, the measured intracellular concentration at each dose was used to parameterize the model. For WAY-138451, however, the LC/MS/MS data was inconsistent at low doses due to lower limit of detection issues. Thus, the mean measured cell-to-nominal-media ratio (0.672) was used to estimate intracellular concentrations at each dose. Reproduction of lixivaptan- and WAY-138451-mediated induction of oxidative stress defined the relationship between liver compound concentration and ROS formation with the reactive nitrogen/oxygen species (RNS/ROS) production rate constants listed in Table 2. […]
To define the DILIsym parameter values for lixivaptan- and WAY-138451-mediated oxidative stress, the 24 hour in vitro data were simulated within DILIsym (Figure B12). The intracellular concentration of each compound was measured by LC/MS/MS analysis. For lixivaptan, the measured intracellular concentration at each dose was used to parameterize the model. […] Thus, the mean measured cell-to-nominal-media ratio (0.672) was used to estimate intracellular concentrations at each dose. […]

[2] = design: method as in proprietary data not shown; conditions: rat tissue distribution study; ref proprietary data not shown; cited from earlier work
[3] = Intracellular concentration by LC/MS/MS in HepG2 cultures parallel to ROS high-content screening; format: in vitro ADME; conditions: human, HepG2 cells, High content screening medium
Description: (§1) To assess the intracellular concentration of lixivaptan and its metabolites, an identical HepG2 culture was established in parallel and cell lysate concentrations of each test article were measured by LC/MS/MS analysis. Intracellular concentrations of the compounds were calculated by correcting for cell lysate volume (100 µL) and the volume of HepG2 cells in each well, which was calculated by multiplying cell count per well by cellular volume per cell (2.85 pl/cell for HepG2). One independent study in triplicate was conducted to assess intracellular concentrations of the test articles for the ROS (high-content imaging) studies.

HepG2 cells [4] = assay: as above; format: in vitro ADME; conditions: High content screening medium; for CIntracellular Fraction: cell lysate
Description: as §1

[5] = cited from earlier work

For `Cc1ccc(F)cc1C(=O)Nc1ccc(C(=O)N2Cc3cccn3Cc3ccccc32)c(Cl)c1` [Lixivaptan, lixivaptan], the IC50 (human BSEP; read-out: BSEP inhibition constant (IC50)) was 15 µM, the “inhibition of BSEP-mediated probe substrate accumulation” value (human BSEP; vesicular transport inhibition assay) was “inhibited” and the “effect on HepG2 oxygen consumption rate (mitochondrial respiration)” value (HepG2 cells [1]) was “reduce the HepG2 oxygen consumption rate (OCR) in a dose-dependent manner”. The “RNS/ROS production rate constant (DILIsym parameter)” value (RNS/ROS formation) was 0.151 M⁻¹ s⁻¹, the measured liver-to-plasma ratio [2] was 17 and the Kp at 5 µM ([3]; dose 5 µM) was 17.6 ± 18.4. For the same molecule, the Kp at 10 µM ([3]; dose 10 µM) was 39.7 ± 6.49, the Kp at 25 µM ([3]; dose 25 µM) was 19.9 ± 4.54 and the Kp at 40 µM ([3]; dose 40 µM) was 12.9 ± 2.68. For the same molecule, the “CExtracellular Fraction” value (HepG2 cells [4]; dose 0.01 µM) was 0.000 ± 0.000 µM, the CHepatocyte (HepG2 cells [4]; dose 0.01 µM) was 0.000 ± 0.000 µM and the “CIntracellular Fraction” value (HepG2 cells [4]; dose 0.01 µM) was 0.000 ± 0.000 µM. The “CExtracellular Fraction” value (HepG2 cells [4]; dose 0.1 µM) was 0.001 ± 0.001 µM, the CHepatocyte (HepG2 cells [4]; dose 0.1 µM) was 0.000 ± 0.000 µM and the “CIntracellular Fraction” value (HepG2 cells [4]; dose 0.1 µM) was 0.000 ± 0.000 µM. For the same molecule, the “CExtracellular Fraction” value (HepG2 cells [4]; dose 0.5 µM) was 0.020 ± 0.001 µM, the CHepatocyte (HepG2 cells [4]; dose 0.5 µM) was 0.000 ± 0.000 µM and the “CIntracellular Fraction” value (HepG2 cells [4]; dose 0.5 µM) was 0.000 ± 0.000 µM. For the same molecule, the “CExtracellular Fraction” value (HepG2 cells [4]; dose 1 µM) was 0.047 ± 0.001 µM, the CHepatocyte (HepG2 cells [4]; dose 1 µM) was 0.000 ± 0.000 µM and the “CIntracellular Fraction” value (HepG2 cells [4]; dose 1 µM) was 0.000 ± 0.000 µM. For the same molecule, the “CExtracellular Fraction” value (HepG2 cells [4]; dose 5 µM) was 0.345 ± 0.011 µM, the CHepatocyte (HepG2 cells [4]; dose 5 µM) was 6.02 ± 6.30 µM and the “CIntracellular Fraction” value (HepG2 cells [4]; dose 5 µM) was 0.0013 ± 0.0016 µM. For the same molecule, the “CExtracellular Fraction” value (HepG2 cells [4]; dose 10 µM) was 0.736 ± 0.055 µM, the CHepatocyte (HepG2 cells [4]; dose 10 µM) was 28.44 ± 5.12 µM and the “CIntracellular Fraction” value (HepG2 cells [4]; dose 10 µM) was 0.0054 ± 0.0032 µM. For the same molecule, the “CExtracellular Fraction” value (HepG2 cells [4]; dose 25 µM) was 2.751 ± 0.143 µM, the CHepatocyte (HepG2 cells [4]; dose 25 µM) was 55.57 ± 15.10 µM and the “CIntracellular Fraction” value (HepG2 cells [4]; dose 25 µM) was 0.0093 ± 0.0055 µM. The “CExtracellular Fraction” value (HepG2 cells [4]; dose 40 µM) was 5.773 ± 0.508 µM, the CHepatocyte (HepG2 cells [4]; dose 40 µM) was 71.75 ± 11.05 µM and the “CIntracellular Fraction” value (HepG2 cells [4]; dose 40 µM) was 0.0114 ± 0.0058 µM. The “Clinical ALT >3X ULN” value ([5]; 100 mg BID, 60 days, hyponatremia protocol, ref study CK-LX3401 (not shown)) was “On treatment similar to placebo**” and the “Clinical ALT >3X ULN” value ([5]; 400 mg BID, 7 days, ref clinical trial CK-LX1403) was “no individuals out of 67 showed elevated ALT”.
